As usually defined, the EC50 is the concentration giving half of the maximal effect.

Where two headings read alike, the source gives them in different places.

For 30 molecules, EC50 results are on record in US8785488B2 (Exelixis Patent Company LLC, priority 2009, dated 2014).

The experiment concerns the target T1, human TGR5 (h-TGR5) (Homo sapiens, UniProt Q8TDU6).
T1 construct: expressed in transfected cells
T1 sequence (Q8TDU6 1-330): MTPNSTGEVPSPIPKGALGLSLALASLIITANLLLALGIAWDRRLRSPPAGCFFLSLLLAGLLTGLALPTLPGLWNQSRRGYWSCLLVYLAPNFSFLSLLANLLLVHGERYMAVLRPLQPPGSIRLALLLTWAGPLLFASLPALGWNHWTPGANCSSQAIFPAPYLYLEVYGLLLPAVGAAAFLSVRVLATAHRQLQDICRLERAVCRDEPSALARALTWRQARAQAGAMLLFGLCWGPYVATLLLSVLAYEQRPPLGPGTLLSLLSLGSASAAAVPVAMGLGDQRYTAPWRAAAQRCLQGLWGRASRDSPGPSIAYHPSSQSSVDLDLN
Description: TGR5/CRE-Luciferiase Assay (HEK 293 hTGR5/CRE-Luc cells). It counts as cell-based. The gist of the method: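 HEK293 cells stably carrying hTGR5 and a CRE-luciferase reporter were exposed to serially diluted compounds (diluted in DMEM with 5% DMSO) for 6 h. Cells were then lysed in luciferase buffer, luminescence was read, and EC50 values were derived from dose-response curves.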

Where [1] appears, read: h-TGR5 CRE-Luc EC50, Table 1, read-out: CRE-Luc (EC50).

Consider `CC(C)(c1ccc(Cl)c(Cl)c1)c1cnc(SCC2CCN(c3nnn[nH]3)CC2)n1-c1ccc(F)c(F)c1` [4-[({5-[1-(3,4-dichlorophenyl)-1-methylethyl]-1-(3,4-difluorophenyl)-1H-imidazol-2-yl}thio)methyl]-1-(1H-tetrazol-5-yl)piperidine], for which, under setting [1], the EC50 is less than 100 nM. Still for that read-out and setting: the same measure for `CC(C)(c1ccc(Cl)c(Cl)c1)c1cnc(COc2ccc(C(N)=O)cn2)n1-c1ccc(F)cc1` [6-[({5-[1-(3,4-dichlorophenyl)-1-methylethyl]-1-(4-fluorophenyl)-1H-imidazol-2-yl}methyl)oxy]pyridine-3-carboxamide]: 100 to 1000 nM; for `COc1ccc(C(C)(C)c2cnc(SCc3c(F)cc(-c4nnn[nH]4)cc3F)n2-c2ccc(F)cc2)cc1Cl` [5-[4-({[5-{1-[3-chloro-4-(methyloxy)phenyl]-1-methylethyl}-1-(4-fluorophenyl)-1H-imidazol-2-yl]thio}methyl)-3,5-difluorophenyl]-1H-tetrazole]: less than 100 nM; for `CC(C)(c1ccc(Cl)c(Cl)c1)c1cnc(SCc2c(F)cc(C#N)cc2F)n1-c1ccc(F)cc1` [4-[({5-[1-(3,4-dichlorophenyl)-1-methylethyl]-1-(4-fluorophenyl)-1H-imidazol-2-yl}thio)methyl]-3,5-difluorobenzonitrile]: less than 100 nM. With `CC(C)(c1ccc(Cl)c(Cl)c1)c1cnc(SCc2ccc(F)cc2Cl)n1-c1cc(F)cc(F)c1` [2-{[(2-chloro-4-fluorophenyl)methyl]thio}-5-[1-(3,4-dichlorophenyl)-1-methylethyl]-1-(3,5-difluorophenyl)-1H-imidazole], under setting [1], the EC50 was in the range of 100 to 1000 nM. Still for that read-out and setting: the same measure for `COc1ccc(C(C)(C)c2cnc(SCc3ccc(F)c(C(=O)O)c3)n2-c2ccc(F)cc2)cc1Cl` [5-({[5-{1-[3-chloro-4-(methyloxy)phenyl]-1-methylethyl}-1-(4-fluorophenyl)-1H-imidazol-2-yl]thio}methyl)-2-fluorobenzoic acid]: 100 to 1000 nM; for `CC(C)(c1ccc(Cl)c(Cl)c1)c1cnc(S(=O)(=O)Cc2c(F)cccc2Cl)n1-c1ccc(F)cc1` [2-{[(2-chloro-6-fluorophenyl)methyl]sulfonyl}-5-[1-(3,4-dichlorophenyl)-1-methylethyl]-1-(4-fluorophenyl)-1H-imidazole]: 100 to 1000 nM. Still for that read-out and setting: the same measure for `COC(=O)c1cc(F)c(OCc2ncc(C(C)(C)c3ccc(Cl)c(Cl)c3)n2-c2ccc(F)cc2)c(Cl)c1` [methyl 3-chloro-4-[({5-[1-(3,4-dichlorophenyl)-1-methylethyl]-1-(4-fluorophenyl)-1H-imidazol-2-yl}methyl)oxy]-5-fluorobenzoate]: 100 to 1000 nM; for `CC(C)(c1ccc(OCC(=O)O)cc1)c1cnc(SCc2c(F)cccc2Cl)n1-c1ccc(F)cc1` [[(4-{1-[2-{[(2-chloro-6-fluorophenyl)methyl]thio}-1-(4-fluorophenyl)-1H-imidazol-5-yl]-1-methylethyl}phenyl)oxy]acetic acid]: 1000 to 10000 nM.

As to `CC(C)(c1ccc(Cl)c(Cl)c1)c1cnc(S(=O)(=O)Nc2ccc(F)cc2Cl)n1-c1ccc(F)cc1` [N-(2-chloro-4-fluorophenyl)-5-[1-(3,4-dichlorophenyl)-1-methylethyl]-1-(4-fluorophenyl)-1H-imidazole-2-sulfonamide], under setting [1], the concentration for a half-maximal effect (EC50) fell in the range of 1000 to 10000 nM. For the molecule `CC(C)(c1ccc2nccnc2c1)c1nnc(SCc2ccc(Cl)c(-c3nnn[nH]3)c2)n1-c1ccc(F)cc1` [Example 46], the EC50 (HEK 293 hTGR5/CRE-Luc cells, 6 hours incubation, luciferase activity, Table 2, read-out: h-TGR5CRE-Luc EC50 (CRE-Luc)) lay in the range of 1000 to 10000 nM. Take `CC(C)(c1ccc(Cl)c(OCCN2CCOCC2)c1)c1cnc(SCc2c(F)cccc2Cl)n1-c1ccc(F)cc1` [4-{2-[(2-chloro-5-{1-[2-{[(2-chloro-6-fluorophenyl)methyl]thio}-1-(4-fluorophenyl)-1H-imidazol-5-yl]-1-methylethyl}phenyl)oxy]ethyl}morpholine]: under setting [1], the 50% effective concentration (EC50) was in the range of 100 to 1000 nM. The same measure, in the same setting: the same measure for `CCN(CC)CCOc1ccc(CSc2ncc(C(C)(C)c3ccc(Cl)c(Cl)c3)n2-c2ccc(F)cc2)cc1S(N)(=O)=O` [5-[({5-[1-(3,4-dichlorophenyl)-1-methylethyl]-1-(4-fluorophenyl)-1H-imidazol-2-yl}thio)methyl]-2-{[2-(diethylamino)ethyl]oxy}benzenesulfonamide]: 100 to 1000 nM; for `CC(C)(c1ccc(Cl)c(Cl)c1)c1cnc(SCc2ccc(F)cc2Cl)n1-c1ccc(F)c(C(F)(F)F)c1` [2-{[(2-chloro-4-fluorophenyl)methyl]thio}-5-[1-(3,4-dichlorophenyl)-1-methylethyl]-1-[4-fluoro-3-(trifluoromethyl)phenyl]-1H-imidazole]: 1000 to 10000 nM; for `Fc1ccc(-n2c(Cc3ccc(F)c(F)c3)cnc2SCc2ccc(F)cc2Cl)cc1` [2-{[(2-chloro-4-fluorophenyl)methyl]thio}-5-[(3,4-difluorophenyl)methyl]-1-(4-fluorophenyl)-1H-imidazole]: 100 to 1000 nM. Same read-out and setting: the same measure for `CC(C)(c1ccc(Cl)c(Cl)c1)c1cnc(SCc2ccc(F)cc2Cl)n1-c1ccc(F)c(OCC(=O)O)c1` [{[5-(2-{[(2-chloro-4-fluorophenyl)methyl]thio}-5-[1-(3,4-dichlorophenyl)-1-methylethyl]-1H-imidazol-1-yl)-2-fluorophenyl]oxy}acetic acid]: 1000 to 10000 nM; for `CC(c1ncc(C(C)(C)c2ccc(Cl)c(Cl)c2)n1-c1ccc(F)cc1)S(=O)(=O)c1ccc(F)cc1Cl` (stereo not drawn) [2-{1-[(2-chloro-4-fluorophenyl)sulfonyl]ethyl}-5-[1-(3,4-dichlorophenyl)-1-methylethyl]-1-(4-fluorophenyl)-1H-imidazole]: 1000 to 10000 nM; for `CC(C)(c1ccc(NS(C)(=O)=O)cc1)c1cnc(SCc2c(F)cccc2Cl)n1-c1ccc(F)cc1` [N-(4-{1-[2-{[(2-chloro-6-fluorophenyl)methyl]thio}-1-(4-fluorophenyl)-1H-imidazol-5-yl]-1-methylethyl}phenyl)methanesulfonamide]: 100 to 1000 nM. For `CC(C)(c1ccc(Cl)c(Cl)c1)c1cnc(S(=O)(=O)Cc2ccc(Cl)cc2Cl)n1-c1ccc(F)cc1` [5-[1-(3,4-dichlorophenyl)-1-methylethyl]-2-{[(2,4-dichlorophenyl)methyl]sulfonyl}-1-(4-fluorophenyl)-1H-imidazole], the concentration giving a half-maximal response (EC50) under setting [1] fell in the range of 1000 to 10000 nM. Regarding `COc1ccc(C(C)(C)c2cnc(SCc3ccc(F)cc3Cl)n2-c2ccc(F)cc2)cc1Cl` [2-{[(2-chloro-4-fluorophenyl)methyl]thio}-5-{1-[3-chloro-4-(methyloxy)phenyl]-1-methylethyl}-1-(4-fluorophenyl)-1H-imidazole], the EC50 under setting [1] was less than 100 nM. Still for that read-out and setting: the same measure for `CC(C)(c1ccc2c(c1)OCO2)c1cnc(SCc2c(F)cccc2Cl)n1-c1ccc(F)cc1` [5-[1-(1,3-benzodioxol-5-yl)-1-methylethyl]-2-{[(2-chloro-6-fluorophenyl)methyl]thio}-1-(4-fluorophenyl)-1H-imidazole]: less than 100 nM; for `CC(C)(O)COc1cc(F)ccc1CSc1ncc(C(C)(C)c2ccc(Cl)c(Cl)c2)n1-c1ccc(F)cc1` [1-({2-[({5-[1-(3,4-dichlorophenyl)-1-methylethyl]-1-(4-fluorophenyl)-1H-imidazol-2-yl}thio)methyl]-5-fluorophenyl}oxy)-2-methylpropan-2-ol]: 100 to 1000 nM; for `CC(C)(c1ccc2c(c1)OCO2)c1cnc(SCc2ccc(F)cc2Cl)n1-c1ccc(F)cc1` [5-[1-(1,3-benzodioxol-5-yl)-1-methylethyl]-2-{[(2-chloro-4-fluorophenyl)methyl]thio}-1-(4-fluorophenyl)-1H-imidazole]: 100 to 1000 nM. The same measure, in the same setting: the same measure for `CC(C)(C)OC(=O)N1CCC(NCc2ncc(C(C)(C)c3ccc(Cl)c(Cl)c3)n2-c2ccc(F)cc2)CC1`: 1000 to 10000 nM; for `CC(C)(c1ccc(O)c(O)c1)c1cnc(SCc2ccc(F)cc2Cl)n1-c1ccc(F)cc1` [4-{1-[2-{[(2-chloro-4-fluorophenyl)methyl]thio}-1-(4-fluorophenyl)-1H-imidazol-5-yl]-1-methylethyl}benzene-1,2-diol]: less than 100 nM; for `CC(C)(c1ccc(Cl)c(Cl)c1)c1cnc(COc2ccc(Cl)c(S(N)(=O)=O)c2)n1-c1ccc(F)cc1` [2-chloro-5-[({5-[1-(3,4-dichlorophenyl)-1-methylethyl]-1-(4-fluorophenyl)-1H-imidazol-2-yl}methyl)oxy]benzenesulfonamide]: 100 to 1000 nM. Same read-out and setting: the same measure for `COc1ccc(C(C)(C)c2cnc(C(=O)NC3CCCCC3)n2-c2ccc(F)cc2)cc1OC` [5-{1-[3,4-bis(methyloxy)phenyl]-1-methylethyl}-N-cyclohexyl-1-(4-fluorophenyl)-1H-imidazole-2-carboxamide]: 1000 to 10000 nM; for `COc1ccc(C(C)(C)c2cnc(C(=O)Nc3ccc(F)cc3Cl)n2-c2ccc(F)cc2)cc1OC` [5-{1-[3,4-bis(methyloxy)phenyl]-1-methylethyl}-N-(2-chloro-4-fluorophenyl)-1-(4-fluorophenyl)-1H-imidazole-2-carboxamide]: 1000 to 10000 nM; for `CNS(=O)(=O)c1ccc(C(C)(C)c2cnc(SCc3ccc(F)cc3Cl)n2-c2ccc(F)cc2)cc1` [4-{1-[2-{[(2-chloro-4-fluorophenyl)methyl]thio}-1-(4-fluorophenyl)-1H-imidazol-5-yl]-1-methylethyl}-N-methylbenzenesulfonamide]: 100 to 1000 nM. Take `CCOC(=O)c1cc(F)c(CSc2nc(C)c(C(C)(C)c3ccc(Cl)c(OC)c3)n2-c2ccc(F)cc2)c(Cl)c1` [ethyl 3-chloro-4-({[5-{1-[4-chloro-3-(methyloxy)phenyl]-1-methylethyl}-1-(4-fluorophenyl)-4-methyl-1H-imidazol-2-yl]thio}methyl)-5-fluorobenzoate]: the EC50 under setting [1] lay in the range of 100 to 1000 nM.
